# Results published in patent US12552752B2, “Atropisomers of pyridazinone derivatives as herbicides” (FMC Corporation, priority 2020, dated 2026).
# “And” between values parts separate entries of the source, which are not always exact repeats. Identical values can stand only once.
# What was measured:
# Type in all cases: in vivo
# [1] = tested on: galium (GAL, catchweed bedstraw, Galium aparine); test: Test A postemergence, galium; conditions: POST, 0 to 100 scale, approximately 10 d
# Source text: (§1) Seeds of plant species selected from barnyardgrass (BYG, Echinochloa crus-galli), kochia (KOC, Kochia scoparia), ragweed (common ragweed, Ambrosia elatior), ryegrass, Italian (RGI, Lolium multiflorum), foxtail, giant (FTI, Setaria faberii), foxtail, green (Setaria viridis) and pigweed (PWR, Amaranthus retroflexus) were planted into a blend of loam soil and sand and treated preemergence with a directed soil spray using test chemicals formulated in a non-phytotoxic solvent mixture which included a surfactant. At the same time, plants selected from these weed species and also wheat (WWT, Triticum aestivum), corn (CPI, Zea mays), blackgrass (BKG, Alopecurus myosuroides) and galium (GAL, catchweed bedstraw, Galium aparine) were planted in pots containing the same blend of loam soil and sand and treated with postemergence applications of test chemicals formulated in the same manner Plants ranged in height from 2 to 10 cm and were in the one- to two-leaf stage for the postemergence treatment. Treated plants and untreated controls were maintained in a greenhouse for approximately 10 d, after which time all treated plants were compared to untreated controls and visually evaluated for injury. Plant response ratings, summarized in Tables 1-4, are based on a 0 to 100 scale where 0 is no effect and 100 is complete control. A dash (−) response means no test result. The ratings are followed by a letter representing the symptomology where S is Albinism, C is Chlorosis, G is Growth Inhibition and E is Emergence.
# [2] = tested on: kochia (KOC, Kochia scoparia); test: Test A postemergence, kochia; conditions: POST, 0 to 100 scale, approximately 10 d
# Source text: as §1
# [3] = tested on: ryegrass, Italian (RGI, Lolium multiflorum); test: Test A postemergence, Italian ryegrass; conditions: POST, 0 to 100 scale, approximately 10 d
# Source text: as §1
# [4] = tested on: blackgrass (BKG, Alopecurus myosuroides); test: Test A postemergence, blackgrass; conditions: POST, 0 to 100 scale, approximately 10 d
# Source text: as §1
# [5] = tested on: ryegrass, Italian (RGI, Lolium multiflorum); test: Test A preemergence, Italian ryegrass; conditions: PRE, 0 to 100 scale, approximately 10 d
# Source text: as §1
# [6] = tested on: pigweed (PWR, Amaranthus retroflexus); test: Test A preemergence, pigweed; conditions: PRE, 0 to 100 scale, approximately 10 d
# Source text: as §1
# [7] = tested on: barnyardgrass (BYG, Echinochloa crus-galli); test: Test A postemergence, barnyardgrass; conditions: POST, 0 to 100 scale, approximately 10 d
# Source text: as §1
# [8] = tested on: barnyardgrass (BYG, Echinochloa crus-galli); test: Test A preemergence, barnyardgrass; conditions: PRE, 0 to 100 scale, approximately 10 d
# Source text: as §1
# [9] = tested on: wheat (WWT, Triticum aestivum); test: Test A postemergence, wheat; conditions: POST, 0 to 100 scale, approximately 10 d
# Source text: as §1
# [10] = tested on: ragweed (common ragweed, Ambrosia elatior); test: Test A postemergence, ragweed; conditions: POST, 0 to 100 scale, approximately 10 d
# Source text: as §1
# [11] = tested on: foxtail, giant (FTI, Setaria faberii); test: Test A postemergence, giant foxtail; conditions: POST, 0 to 100 scale, approximately 10 d
# Source text: as §1
# [12] = tested on: corn (CPI, Zea mays); test: Test A postemergence, corn; conditions: POST, 0 to 100 scale, approximately 10 d
# Source text: as §1
# [13] = tested on: ragweed (common ragweed, Ambrosia elatior); test: Test A preemergence, ragweed; conditions: PRE, 0 to 100 scale, approximately 10 d
# Source text: as §1
# [14] = tested on: foxtail, giant (FTI, Setaria faberii); test: Test A preemergence, giant foxtail; conditions: PRE, 0 to 100 scale, approximately 10 d
# Source text: as §1
# [15] = tested on: kochia (KOC, Kochia scoparia); test: Test A preemergence, kochia; conditions: PRE, 0 to 100 scale, approximately 10 d
# Source text: as §1
# [16] = tested on: pigweed (PWR, Amaranthus retroflexus); test: Test A postemergence, pigweed; conditions: POST, 0 to 100 scale, approximately 10 d
# Source text: as §1
# [17] = 31 g ai/ha, listed as drawing 31
# [18] = 16 g ai/ha, listed as drawing 31
# [19] = 62 g ai/ha, listed as drawing 31
# [20] = 125 g ai/ha, listed as drawing 31
# [21] = 31 g ai/ha, listed as drawing 32
# [22] = 16 g ai/ha, listed as drawing 32
# [23] = 62 g ai/ha, listed as drawing 32
# [24] = 125 g ai/ha, listed as drawing 32
# [25] = 31 g ai/ha, listed as drawing 25
# [26] = 125 g ai/ha, listed as drawing 25
smiles,measurement,setting,value
CCC(=O)Oc1c(Cl)nn(C)c(=O)c1-c1c(C)ccc2ccccc12 (racemic) [5 (Enantiomer 5A)],Plant response rating GAL,[1]; 16 g ai/ha,90 S
same,Plant response rating GAL,[1]; [17],90 S
same,Plant response rating GAL,[1]; 62 g ai/ha,100 S
same,Plant response rating GAL,[1]; 125 g ai/ha,100 S
same,Plant response rating KOC,[2]; [18],70 S
same,Plant response rating KOC,[2]; 31 g ai/ha,70 S
same,Plant response rating KOC,[2]; [19],80 S
same,Plant response rating KOC,[2]; [20],80 S and 70 S
same,Plant response rating RGI,[3]; [18],10 S
same,Plant response rating RGI,[3]; [19],50 S
same,Plant response rating BKG,[4]; [18],0
same,Plant response rating BKG,[4]; [17],0
same,Plant response rating BKG,[4]; [19],0
same,Plant response rating RGI,[5]; 16 g ai/ha,0
same,Plant response rating RGI,[5]; 31 g ai/ha,0
same,Plant response rating RGI,[5]; [19],0
same,Plant response rating RGI,[5]; [20],30 S and 20 S
same,Plant response rating PWR,[6]; [18],10 C
same,Plant response rating PWR,[6]; 31 g ai/ha,60 C and 100 C
same,Plant response rating PWR,[6]; [19],90 C
same,Plant response rating BYG,[7]; [18],0
same,Plant response rating BYG,[7]; [19],0
same,Plant response rating BYG,[7]; [20],30 S and 20 S
same,Plant response rating BYG,[8]; 16 g ai/ha,0
same,Plant response rating BYG,[8]; 31 g ai/ha,0
same,Plant response rating BYG,[8]; 62 g ai/ha,0
same,Plant response rating WWT,[9]; [18],0
same,Plant response rating WWT,[9]; [17],0
same,Plant response rating WWT,[9]; [19],0
same,Plant response rating WWT,[9]; [20],0
same,Plant response rating RWC,[10]; [18],80 S
same,Plant response rating RWC,[10]; 31 g ai/ha,90 S
same,Plant response rating RWC,[10]; 62 g ai/ha,90 S
same,Plant response rating RWC,[10]; [20],90 S
same,Plant response rating FTI,[11]; [18],10 C
same,Plant response rating FTI,[11]; [17],10 S
same,Plant response rating FTI,[11]; [19],10 S
same,Plant response rating FTI,[11]; [20],20 S and 30 S
same,Plant response rating CPI,[12]; 16 g ai/ha,0
same,Plant response rating CPI,[12]; [17],0
same,Plant response rating CPI,[12]; 62 g ai/ha,0
same,Plant response rating RWC,[13]; [18],0
same,Plant response rating RWC,[13]; [19],90 C
same,Plant response rating RWC,[13]; [20],100 C and 90 C
same,Plant response rating FTI,[14]; 16 g ai/ha,0
same,Plant response rating FTI,[14]; [19],0
same,Plant response rating KOC,[15]; 16 g ai/ha,10 C
same,Plant response rating KOC,[15]; [19],70 S
same,Plant response rating KOC,[15]; [20],80 S
same,Plant response rating PWR,[16]; [18],80 S
same,Plant response rating PWR,[16]; 31 g ai/ha,90 S
same,Plant response rating PWR,[16]; 62 g ai/ha,90 S
same,Plant response rating PWR,[16]; [20],90 S
CCC(=O)Oc1c(Cl)nn(C)c(=O)c1-c1c(C)ccc2ccccc12 (racemic) [5 (Enantiomer 5B)],Plant response rating GAL,[1]; [21],90 S and 100 S
same,Plant response rating KOC,[2]; [22],50 S
same,Plant response rating KOC,[2]; [23],70 S
same,Plant response rating KOC,[2]; [24],80 S and 90 S
same,Plant response rating RGI,[3]; [22],40 C
same,Plant response rating RGI,[3]; [21],70 C and 80 C
same,Plant response rating RGI,[3]; [23],80 C
same,Plant response rating BKG,[4]; [22],20 S
same,Plant response rating BKG,[4]; [23],40 G
same,Plant response rating BKG,[4]; [24],50 S and 80 S
same,Plant response rating RGI,[5]; [23],10 S
same,Plant response rating PWR,[6]; [22],0
same,Plant response rating PWR,[6]; [23],60 G
same,Plant response rating BYG,[7]; [22],30 S
same,Plant response rating BYG,[7]; [23],40 S
same,Plant response rating BYG,[7]; [24],80 S and 90 S
same,Plant response rating WWT,[9]; [22],0
same,Plant response rating WWT,[9]; [23],10 S
same,Plant response rating WWT,[9]; [24],50 S
same,Plant response rating RWC,[10]; [22],90 S
same,Plant response rating RWC,[10]; [24],100 S and 90 S
same,Plant response rating FTI,[11]; [22],20 S
same,Plant response rating FTI,[11]; [21],60 S and 50 S
same,Plant response rating FTI,[11]; [23],60 S
same,Plant response rating FTI,[11]; [24],90 S
same,Plant response rating RWC,[13]; [22],20 S
same,Plant response rating RWC,[13]; 31 g ai/ha,70 S and 50 S
same,Plant response rating RWC,[13]; [23],70 S
same,Plant response rating RWC,[13]; [24],100 C and 90 C
same,Plant response rating FTI,[14]; [23],30 S
same,Plant response rating KOC,[15]; [23],50 S
same,Plant response rating KOC,[15]; [24],70 S and 50 S
same,Plant response rating PWR,[16]; [22],90 S
same,Plant response rating PWR,[16]; [24],100 S
"Cc1ccc2ccc(C)c(-c3c(O)c(Cl)nn(C)c3=O)c2c1 (single isomer, unassigned) [2 (Enantiomer 2A)]",Plant response rating GAL,[1]; [25],100 C 100 C
same,Plant response rating GAL,[1]; [26],100 C 100 C
same,Plant response rating KOC,[2]; 31 g ai/ha,60 S
same,Plant response rating KOC,[2]; [26],80 S
same,Plant response rating RGI,[3]; [25],30 S
same,Plant response rating RGI,[3]; [26],40 S
same,Plant response rating BKG,[4]; [25],0
same,Plant response rating BKG,[4]; [26],20 S
same,Plant response rating RGI,[5]; [25],20 G
same,Plant response rating RGI,[5]; [26],20 G
same,Plant response rating PWR,[6]; 31 g ai/ha,100 C 100 C 100 C 100 C
same,Plant response rating PWR,[6]; 125 g ai/ha,100 C 100 C 100 C 100 C
same,Plant response rating BYG,[7]; [25],20 C
same,Plant response rating BYG,[7]; [26],30 C
same,Plant response rating BYG,[8]; [25],0
same,Plant response rating BYG,[8]; [26],50 G
same,Plant response rating WWT,[9]; [25],0
same,Plant response rating WWT,[9]; [26],0
same,Plant response rating RWC,[10]; [25],90 S 90 S
same,Plant response rating RWC,[10]; [26],90 S 90 S
same,Plant response rating FTI,[11]; [25],30 S
same,Plant response rating FTI,[11]; [26],60 S
same,Plant response rating CPI,[12]; [25],10 G
same,Plant response rating CPI,[12]; 125 g ai/ha,30 G
same,Plant response rating FTI,[14]; [25],20 S
same,Plant response rating FTI,[14]; [26],40 S
same,Plant response rating KOC,[15]; [25],10 C
same,Plant response rating KOC,[15]; [26],80 S
same,Plant response rating PWR,[16]; 31 g ai/ha,100 C 100 C 100 C 100 C
same,Plant response rating PWR,[16]; 125 g ai/ha,100 C 100 C 100 C 100 C
